In paper PMC11502502 (Nature cancer, 2024):
“And” between values parts separate entries of the source, which are not always exact repeats. Equal values may be shown once.

What was measured:
Assay type in all cases: in vivo
[1] = test system: SNU398 (HCC) xenografts; assay: SNU398 liver cancer xenograft efficacy; settings: SNU-398 (HCC) tumor bearing mice, Regorafinib 30 mg/kg qd po, one value per animal
[2] = test system: MV-4–11 (AML)-xenografted mice; assay: MV-4–11 AML xenograft efficacy and overall survival; parameters: anti-tumor efficacy in MV-4-11 (AML)-tumor bearing mice in combination with SoC (tumor measurement per animal): unit not given here; settings: for Overall survival of MV-4-11 (AML)-tumor bearing mice: BRD-810 50 mg/kg; for anti-tumor efficacy in MV-4-11 (AML)-tumor bearing mice in combination with SoC (tumor measurement per animal): individual animals, BRD-810 50mg/kg
[3] = test system: THP-1 (AML) xenografted mice; assay: THP-1 AML xenograft efficacy; parameters: anti-tumor efficacy in THP-1 (AML)-tumor bearing mice, individual measurements: unit not given here; settings: for anti-tumor efficacy in THP-1 (AML)-tumor bearing mice, individual measurements: Venetoclax, animals #5001-#5010

CNC(=O)c1cc(Oc2ccc(NC(=O)Nc3ccc(Cl)c(C(F)(F)F)c3)c(F)c2)ccn1 [Regorafinib]
anti-tumor efficacy, individual measurements ([1]; day 1 post treatment start): 63.45 and 60.8 and 64.88 and 117.14 and 74.08 and 111.9 and 95.85
anti-tumor efficacy, individual measurements ([1]; day 3 post treatment start): 72 and 76.25 and 72.91 and 127.45 and 81.33 and 119.22 and 106.01
anti-tumor efficacy, individual measurements ([1]; day 7 post treatment start): 83.42 and 75.99 and 78.47 and 145.78 and 87.63 and 117.37
anti-tumor efficacy, individual measurements ([1]; day 8 post treatment start): 100.66 and 81.04 and 87.14 and 150.75 and 99.27 and 129.84
anti-tumor efficacy, individual measurements ([1]; day 10 post treatment start): 89.75 and 86.89 and 87.88 and 152.45 and 93.82 and 132.88
anti-tumor efficacy, individual measurements ([1]; day 13 post treatment start): 96.32 and 85.08 and 98.92 and 145.11 and 103.54 and 167.23

CC1(C)CCC(CN2CCN(c3ccc(C(=O)NS(=O)(=O)c4ccc(NCC5CCOCC5)c([N+](=O)[O-])c4)c(Oc4cnc5[nH]ccc5c4)c3)CC2)=C(c2ccc(Cl)cc2)C1 [venetoclax]
Overall survival of MV-4-11 (AML)-tumor bearing mice ([2]; day 0 post treatment start): 100
Overall survival of MV-4-11 (AML)-tumor bearing mice ([2]; day 1 post treatment start): 100
anti-tumor efficacy in MV-4-11 (AML)-tumor bearing mice in combination with SoC (tumor measurement per animal) ([2]; day 1 post treatment start): 33.13 and 28.19 and 34.15 and 35.82 and 29.42 and 37.09 and 44.34 and 37.28 and 33.74 and 41.97
Overall survival of MV-4-11 (AML)-tumor bearing mice ([2]; day 4 post treatment start): 100
anti-tumor efficacy in MV-4-11 (AML)-tumor bearing mice in combination with SoC (tumor measurement per animal) ([2]; day 4 post treatment start): 32.39 and 37.39 and 43.94 and 50.14 and 32.53 and 44.14 and 52.92 and 48.8 and 41.66 and 49.99
Overall survival of MV-4-11 (AML)-tumor bearing mice ([2]; day 8 post treatment start): 100
anti-tumor efficacy in MV-4-11 (AML)-tumor bearing mice in combination with SoC (tumor measurement per animal) ([2]; day 8 post treatment start): 41.04 and 57.44 and 59.24 and 62.99 and 49.55 and 52.42 and 59.83 and 53.52 and 48.45 and 66.98
Overall survival of MV-4-11 (AML)-tumor bearing mice ([2]; day 11 post treatment start): 100
anti-tumor efficacy in MV-4-11 (AML)-tumor bearing mice in combination with SoC (tumor measurement per animal) ([2]; day 11 post treatment start): 47.19 and 72.26 and 75.92 and 72.38 and 72.25 and 70.02 and 85.2 and 60.52 and 70.23 and 97.04
Overall survival of MV-4-11 (AML)-tumor bearing mice ([2]; day 15 post treatment start): 100
anti-tumor efficacy in MV-4-11 (AML)-tumor bearing mice in combination with SoC (tumor measurement per animal) ([2]; day 15 post treatment start): 63.44 and 101.62 and 98.93 and 111.48 and 113.46 and 108.85 and 111.46 and 76.94 and 80.71 and 124.01
Overall survival of MV-4-11 (AML)-tumor bearing mice ([2]; day 16 post treatment start): 100
anti-tumor efficacy in MV-4-11 (AML)-tumor bearing mice in combination with SoC (tumor measurement per animal) ([2]; day 16 post treatment start): 66 and 108.03 and 100.41 and 123.76 and 112.88 and 118.57 and 116.35 and 89.12 and 87.16 and 125.05
Overall survival of MV-4-11 (AML)-tumor bearing mice ([2]; day 17 post treatment start): 0
anti-tumor efficacy in MV-4-11 (AML)-tumor bearing mice in combination with SoC (tumor measurement per animal) ([2]; day 17 post treatment start): 74.19 and 130.91 and 105.55 and 136.78 and 132.34 and 126.42 and 134.13 and 95.37 and 110.48 and 139.48
Overall survival of MV-4-11 (AML)-tumor bearing mice ([2]; day 19 post treatment start): 0
Overall survival of MV-4-11 (AML)-tumor bearing mice ([2]; day 22 post treatment start): 0
Overall survival of MV-4-11 (AML)-tumor bearing mice ([2]; day 23 post treatment start): 0
Overall survival of MV-4-11 (AML)-tumor bearing mice ([2]; day 24 post treatment start): 0
Overall survival of MV-4-11 (AML)-tumor bearing mice ([2]; day 25 post treatment start): 0
Overall survival of MV-4-11 (AML)-tumor bearing mice ([2]; day 28 post treatment start): 0
Overall survival of MV-4-11 (AML)-tumor bearing mice ([2]; day 30 post treatment start): 0
Overall survival of MV-4-11 (AML)-tumor bearing mice ([2]; day 32 post treatment start): 0
Overall survival of MV-4-11 (AML)-tumor bearing mice ([2]; day 34 post treatment start): 0
Overall survival of MV-4-11 (AML)-tumor bearing mice ([2]; day 37 post treatment start): 0
Overall survival of MV-4-11 (AML)-tumor bearing mice ([2]; day 39 post treatment start): 0
Overall survival of MV-4-11 (AML)-tumor bearing mice ([2]; day 41 post treatment start): 0
Overall survival of MV-4-11 (AML)-tumor bearing mice ([2]; day 44 post treatment start): 0
Overall survival of MV-4-11 (AML)-tumor bearing mice ([2]; day 46 post treatment start): 0
Overall survival of MV-4-11 (AML)-tumor bearing mice ([2]; day 48 post treatment start): 0
Overall survival of MV-4-11 (AML)-tumor bearing mice ([2]; day 51 post treatment start): 0
Overall survival of MV-4-11 (AML)-tumor bearing mice ([2]; day 53 post treatment start): 0
Antitumor efficacy, single agent ([3]; 100 mg kg^−1 orally, daily): neither the Bcl-2 inhibitor venetoclax nor cytarabine showed appreciable single-agent efficacy
anti-tumor efficacy in THP-1 (AML)-tumor bearing mice, individual measurements ([3]; day 1 post treatment start): 36.27 and 38.57 and 29.6 and 32.89 and 34.28 and 28.35 and 32.76 and 34.15 and 38.81 and 36.79
anti-tumor efficacy in THP-1 (AML)-tumor bearing mice, individual measurements ([3]; day 3 post treatment start): 46.08 and 62.31 and 36.23 and 49.99 and 71.57 and 33.25 and 37.51 and 51.73 and 48.97 and 53.06
anti-tumor efficacy in THP-1 (AML)-tumor bearing mice, individual measurements ([3]; day 6 post treatment start): 58.2 and 76.5 and 34.06 and 66.44 and 87.06 and 33.28 and 39.03 and 72.1 and 63 and 57.59
anti-tumor efficacy in THP-1 (AML)-tumor bearing mice, individual measurements ([3]; day 8 post treatment start): 70.38 and 85.8 and 36.3 and 78.87 and 103.9 and 36.38 and 41.14 and 85.31 and 91.47 and 80.8
anti-tumor efficacy in THP-1 (AML)-tumor bearing mice, individual measurements ([3]; day 10 post treatment start): 100.62 and 113 and 44.66 and 100.81 and 143.73 and 36.12 and 44.28 and 122.17 and 124.4 and 110.66
anti-tumor efficacy in THP-1 (AML)-tumor bearing mice, individual measurements ([3]; day 13 post treatment start): 129.99 and 188.46 and 53.9 and 147.24 and 211.83 and 41.12 and 60.34 and 168.23 and 177.94 and 148.93
